Measured values as given in paper PMC7587962, “Evaluation of Cytotoxicity and α-Glucosidase Inhibitory Activity of Amide and Polyamino-Derivatives of Lupane Triterpenoids” (Molecules, 2020).

Legend:
[1] = system: SK-MEL-5; assay: NCI-60 SRB screen: melanoma SK-MEL-5; type: cell-based, human
[2] = system: CCRF-CEM; assay: NCI-60 SRB screen: leukemia CCRF-CEM; type: cell-based; conditions: Homo sapiens, 48 h
[3] = system: OVCAR-5; assay: NCI-60 SRB screen: ovarian cancer OVCAR-5; type: cell-based, human
[4] = system: MOLT-4; assay: NCI-60 SRB screen: leukemia MOLT-4; type: cell-based; conditions: Homo sapiens, MOLT-4, 48 h
[5] = system: ACHN; assay: NCI-60 SRB screen: renal cancer ACHN; type: cell-based, human
[6] = system: CAKI-1; assay: NCI-60 SRB screen: renal cancer CAKI-1; type: cell-based, human
[7] = system: NSCL cancer subpanel; assay: NCI-60 screen, subpanel NSCL cancer
[8] = system: IGROV1; assay: NCI-60 SRB screen: ovarian cancer IGROV1; type: cell-based, human
[9] = system: MALME-3M; assay: NCI-60 SRB screen: melanoma MALME-3M; type: cell-based, human
[10] = system: A549/ATCC; assay: NCI-60 SRB screen: non-small cell lung cancer A549/ATCC; type: cell-based, human
[11] = system: MDA-MB-435; assay: NCI-60 SRB screen: melanoma MDA-MB-435; type: cell-based, human
[12] = system: SF-268; assay: NCI-60 SRB screen: CNS cancer SF-268; type: cell-based, human
[13] = system: RXF 393; assay: NCI-60 SRB screen: renal cancer RXF 393; type: cell-based, human
[14] = system: HT29; assay: NCI-60 SRB screen: colon cancer HT29; type: cell-based; conditions: Homo sapiens, HT-29, 48 h
[15] = system: MDA-MB-231/ATCC; assay: NCI-60 SRB screen: breast cancer MDA-MB-231/ATCC; type: cell-based; conditions: Homo sapiens, MDA-MB-231, 48 h
[16] = system: DU-145; assay: NCI-60 SRB screen: prostate cancer DU-145; type: cell-based, human
[17] = system: NCI-H322M; assay: NCI-60 SRB screen: non-small cell lung cancer NCI-H322M; type: cell-based, human
[18] = system: HCC-2998; assay: NCI-60 SRB screen: colon cancer HCC-2998; type: cell-based, human
[19] = system: Renal Cancer subpanel; assay: NCI-60 screen, subpanel Renal Cancer
[20] = system: OVCAR-3; assay: NCI-60 SRB screen: ovarian cancer OVCAR-3; type: cell-based, human
[21] = system: RPMI-8226; assay: NCI-60 SRB screen: leukemia RPMI-8226; type: cell-based; conditions: Homo sapiens, RPMI-8226, 48 h
[22] = system: HOP-92; assay: NCI-60 SRB screen: non-small cell lung cancer HOP-92; type: cell-based, human
[23] = system: HS 578T; assay: NCI-60 SRB screen: breast cancer HS 578T; type: cell-based, human
[24] = system: HOP-62; assay: NCI-60 SRB screen: non-small cell lung cancer HOP-62; type: cell-based, human
[25] = system: SF-295; assay: NCI-60 SRB screen: CNS cancer SF-295; type: cell-based, human
[26] = system: SF-539; assay: NCI-60 SRB screen: CNS cancer SF-539; type: cell-based, human
[27] = system: TK-10; assay: NCI-60 SRB screen: renal cancer TK-10; type: cell-based, human
[28] = system: T-47D; assay: NCI-60 SRB screen: breast cancer T-47D; type: cell-based, human
[29] = system: NCI-H460; assay: NCI-60 SRB screen: non-small cell lung cancer NCI-H460; type: cell-based; conditions: Homo sapiens, NCI-H460, 48 h
[30] = system: Ovarian Cancer subpanel; assay: NCI-60 screen, subpanel Ovarian Cancer
[31] = system: SNB-75; assay: NCI-60 SRB screen: CNS cancer SNB-75; type: cell-based, human
[32] = system: NCI-H23; assay: NCI-60 SRB screen: non-small cell lung cancer NCI-H23; type: cell-based, human
[33] = system: U251; assay: NCI-60 SRB screen: CNS cancer U251; type: cell-based; conditions: Homo sapiens, U-251, 48 h
[34] = system: KM12; assay: NCI-60 SRB screen: colon cancer KM12; type: cell-based, human
[35] = system: K-562; assay: NCI-60 SRB screen: leukemia K-562; type: cell-based, human
[36] = system: EKVX; assay: NCI-60 SRB screen: non-small cell lung cancer EKVX; type: cell-based, human
[37] = system: OVCAR-8; assay: NCI-60 SRB screen: ovarian cancer OVCAR-8; type: cell-based, human
[38] = read-out: Percentage Cell Growth

## C=C(C)[C@@H]1CC[C@]2(C(N)=O)CC[C@]3(C)[C@H](CC[C@@H]4[C@@]5(C)CC[C@H](O)C(C)(C)[C@@H]5CC[C@]43C)[C@@H]12 [Compound 5]
[1]; Homo sapiens, SK-MEL-5, 48 h
  GI50: 5.22 µM
[1]; SK-MEL-5, single dose 10 µM
  Percentage Cell Growth: −39.59%
[2]
  GI50: 4.49 µM
[2]; [38]
  activity at 10 µM: 3.11%
[3]; Homo sapiens, OVCAR-5, 48 h
  GI50: 3.78 µM
[3]; OVCAR-5, single dose 10 µM
  Percentage Cell Growth: −21.57%
[4]
  GI50: 3.43 µM
[4]; [38]
  activity at 10 µM: 1.86%
[5]; Homo sapiens, 48 h
  GI50: 2440 nM
[5]; single dose 10 µM
  Percentage Cell Growth: −80.29%
[6]; CAKI-1, single dose 10 µM
  Percentage Cell Growth: −64.30%
[6]; Homo sapiens, CAKI-1, 48 h
  GI50: 1980 nM
[7]
  MID b, average sensitivity of all cell line of particular subpanel: 2.79 µM
  Selectivity, ratio MID a: MID b: 1.32
[8]; Homo sapiens, IGROV-1, 48 h
  GI50: 3.32 µM
[8]; IGROV1, single dose 10 µM
  Percentage Cell Growth: −58.08%
[9]; Homo sapiens, Malme-3M, 48 h
  GI50: 2390 nM
[9]; MALME-3M, single dose 10 µM
  Percentage Cell Growth: −57.05%
[10]; A549/ATCC, single dose 10 µM
  Percentage Cell Growth: −69.33%
[10]; Homo sapiens, A549, 48 h
  GI50: 2110 nM
[11]; Homo sapiens, MDA-MB-435, 48 h
  GI50: 8.65 µM
[11]; MDA-MB-435, single dose 10 µM
  Percentage Cell Growth: −4.44%
[12]; Homo sapiens, SF-268, 48 h
  GI50: 4.34 µM
[12]; SF-268, single dose 10 µM
  Percentage Cell Growth: 4.41%
[13]; Homo sapiens, RXF 393, 48 h
  GI50: 2100 nM
[13]; RXF 393, single dose 10 µM
  Percentage Cell Growth: −49.35%
[14]
  GI50: 2560 nM
[14]; [38]
  activity at 10 µM: -49.5%
[15]
  GI50: 1970 nM
[15]; [38]
  activity at 10 µM: -28.4%
[16]; DU-145, single dose 10 µM
  Percentage Cell Growth: −32.96%
[16]; Homo sapiens, DU-145, 48 h
  GI50: 3.21 µM
[17]; Homo sapiens, 48 h
  GI50: 2590 nM
[17]; single dose 10 µM
  Percentage Cell Growth: −58.91%
[18]; HCC-2998, single dose 10 µM
  Percentage Cell Growth: −39.02%
[18]; Homo sapiens, HCC 2998, 48 h
  GI50: 3.96 µM
[19]
  MID b, average sensitivity of all cell line of particular subpanel: 3.53 µM
  Selectivity, ratio MID a: MID b: 1.04
[20]; Homo sapiens, OVCAR-3, 48 h
  GI50: 2070 nM
[20]; OVCAR-3, single dose 10 µM
  Percentage Cell Growth: −46.59%
[21]
  GI50: 3.53 µM
[21]; [38]
  activity at 10 µM: -19.8%
[22]; HOP-92, single dose 10 µM
  Percentage Cell Growth: −62.83%
[22]; Homo sapiens, HOP-92, 48 h
  GI50: 2690 nM
[23]; HS 578T, single dose 10 µM
  Percentage Cell Growth: −1.70%
[23]; Homo sapiens, Hs-578T, 48 h
  GI50: 5.74 µM
[24]; HOP-62, single dose 10 µM
  Percentage Cell Growth: −72.18%
[24]; Homo sapiens, HOP-62, 48 h
  GI50: 3.21 µM
[25]; Homo sapiens, SF-295, 48 h
  GI50: 3.39 µM
[25]; SF-295, single dose 10 µM
  Percentage Cell Growth: −57.70%
[26]; Homo sapiens, SF-539, 48 h
  GI50: 1780 nM
[26]; SF-539, single dose 10 µM
  Percentage Cell Growth: −70.46%
[27]; Homo sapiens, TK-10, 48 h
  GI50: 2790 nM
[27]; TK-10, single dose 10 µM
  Percentage Cell Growth: −69.84%
[28]; Homo sapiens, T47D, 48 h
  GI50: 4.55 µM
[28]; T-47D, single dose 10 µM
  Percentage Cell Growth: −24.75%
[29]
  GI50: 2120 nM
[29]; [38]
  activity at 10 µM: -37.5%
[30]
  MID b, average sensitivity of all cell line of particular subpanel: 3.88 µM
  Selectivity, ratio MID a: MID b: 0.95
[31]; Homo sapiens, SNB-75, 48 h
  GI50: 2740 nM
[31]; SNB-75, single dose 10 µM
  Percentage Cell Growth: −39.09%
[32]; Homo sapiens, NCI-H23, 48 h
  GI50: 2260 nM
[32]; NCI-H23, single dose 10 µM
  Percentage Cell Growth: −27.08%
[33]
  GI50: 2540 nM
[33]; [38]
  activity at 10 µM: -69.3%
[34]; Homo sapiens, KM12, 48 h
  GI50: 3.2 µM
[34]; KM12, single dose 10 µM
  Percentage Cell Growth: −63.59%
[35]; Homo sapiens, K562, 48 h
  GI50: 3.04 µM
[35]; K-562, single dose 10 µM
  Percentage Cell Growth: 4.57%
[36]; Homo sapiens, 48 h
  GI50: 2960 nM
[36]; single dose 10 µM
  Percentage Cell Growth: −10.31%
[37]; Homo sapiens, OVCAR-8, 48 h
  GI50: 3.12 µM
[37]; OVCAR-8, single dose 10 µM
  Percentage Cell Growth: −64.82%
